Experiments:
[1] = The drug is tested on Bacteroides fragilis strain: HMW610 for biotransformation. The drug concentrations were measured before and after a 12-h incubation by liquid-chromatography-coupled mass spectrometry (LC–MS); details: 2 µM
[2] = The drug is tested on Subdoligranulum variabile strain: DSM15176 for biotransformation. The drug concentrations were measured before and after a 12-h incubation by liquid-chromatography-coupled mass spectrometry (LC–MS); details: 2 µM
[3] = roseburia intestinalis, 12 h, 2 µM
Description: The drug is tested on Roseburia intestinalis strain: L1-82 for biotransformation. The drug concentrations were measured before and after a 12-h incubation by liquid-chromatography-coupled mass spectrometry (LC–MS)

[4] = bacteroides thetaiotaomicron, 12 h, 2 µM
Description: The drug is tested on Bacteroides thetaiotaomicron strain: VPI-5482 for biotransformation. The drug concentrations were measured before and after a 12-h incubation by liquid-chromatography-coupled mass spectrometry (LC–MS)

[5] = The drug is tested on Bacteroides vulgatus strain: ATCC8482 for biotransformation. The drug concentrations were measured before and after a 12-h incubation by liquid-chromatography-coupled mass spectrometry (LC–MS); details: phocaeicola vulgatus, 2 µM
[6] = The drug is tested on Providencia rettgeri strain: DSM1131 for biotransformation. The drug concentrations were measured before and after a 12-h incubation by liquid-chromatography-coupled mass spectrometry (LC–MS); format: ADME; set-up: dose 2 uM, timepoint 0 vs 12 hours; details: 2 µM
[7] = The drug is tested on Blautia luti strain: DSM14534 for biotransformation. The drug concentrations were measured before and after a 12-h incubation by liquid-chromatography-coupled mass spectrometry (LC–MS); format: ADME; set-up: dose 2 uM, timepoint 0 vs 12 hours; details: 2 µM
[8] = bacteroides fragilis, 12 h, 2 µM
Description: The drug is tested on Bacteroides fragilis strain: DS-208 for biotransformation. The drug concentrations were measured before and after a 12-h incubation by liquid-chromatography-coupled mass spectrometry (LC–MS)

[9] = akkermansia muciniphila, 12 h, 2 µM
Description: The drug is tested on Akkermansia muciniphila strain: ATCC BAA-835 for biotransformation. The drug concentrations were measured before and after a 12-h incubation by liquid-chromatography-coupled mass spectrometry (LC–MS)

[10] = bacteroides eggerthii, 12 h, 2 µM
Description: The drug is tested on Bacteroides eggerthii strain: DSM20697 for biotransformation. The drug concentrations were measured before and after a 12-h incubation by liquid-chromatography-coupled mass spectrometry (LC–MS)

[11] = The drug is tested on Anaerococcus hydrogenalis strain: DSM7454 for biotransformation. The drug concentrations were measured before and after a 12-h incubation by liquid-chromatography-coupled mass spectrometry (LC–MS); details: 2 µM
[12] = anaerostipes sp., 12 h, 2 µM
Description: The drug is tested on Anaerostipes sp. strain: fecal isolate for biotransformation. The drug concentrations were measured before and after a 12-h incubation by liquid-chromatography-coupled mass spectrometry (LC–MS)

[13] = The drug is tested on Clostridium scindens strain: ATCC35704 for biotransformation. The drug concentrations were measured before and after a 12-h incubation by liquid-chromatography-coupled mass spectrometry (LC–MS); details: 2 µM
[14] = parabacteroides distasonis, 12 h, 2 µM
Description: The drug is tested on Parabacteroides distasonis strain: ATCC8503 for biotransformation. The drug concentrations were measured before and after a 12-h incubation by liquid-chromatography-coupled mass spectrometry (LC–MS)

[15] = The drug is tested on Ruminococcus lactaris strain: ATCC29176 for biotransformation. The drug concentrations were measured before and after a 12-h incubation by liquid-chromatography-coupled mass spectrometry (LC–MS); details: 2 µM
[16] = The drug is tested on Bacteroides fragilis strain: HMW615 for biotransformation. The drug concentrations were measured before and after a 12-h incubation by liquid-chromatography-coupled mass spectrometry (LC–MS); details: 2 µM
[17] = The drug is tested on Clostridium sp. strain: fecal isolate for biotransformation. The drug concentrations were measured before and after a 12-h incubation by liquid-chromatography-coupled mass spectrometry (LC–MS); details: 2 µM
[18] = bacteroides stercoris, 12 h, 2 µM
Description: The drug is tested on Bacteroides stercoris strain: ATCC43183 for biotransformation. The drug concentrations were measured before and after a 12-h incubation by liquid-chromatography-coupled mass spectrometry (LC–MS)

[19] = parabacteroides johnsonii, 12 h, 2 µM
Description: The drug is tested on Parabacteroides johnsonii strain: DSM18315 for biotransformation. The drug concentrations were measured before and after a 12-h incubation by liquid-chromatography-coupled mass spectrometry (LC–MS)

Compound | Bacterial Biotransformation [1] | Bacterial Biotransformation [2] | Bacterial Biotransformation [3] | Bacterial Biotransformation [4] | Bacterial Biotransformation [5] | Bacterial Biotransformation [6] | Bacterial Biotransformation [7] | Bacterial Biotransformation [8] | Bacterial Biotransformation [9] | Bacterial Biotransformation [10] | Bacterial Biotransformation [11] | Bacterial Biotransformation [12] | Bacterial Biotransformation [13] | Bacterial Biotransformation [14] | Bacterial Biotransformation [15] | Bacterial Biotransformation [16] | Bacterial Biotransformation [18] | Bacterial Biotransformation [19] | Bacterial Biotransformation [17]
CCN(CC)CCNC(C(=O)OCCC(C)C)c1ccccc1.Cl.Cl (stereo not drawn) | Compound NOT metabolized | Compound metabolized | Compound NOT metabolized | Compound NOT metabolized | Compound NOT metabolized | Compound NOT metabolized | Compound NOT metabolized | Compound NOT metabolized | Compound NOT metabolized | Compound NOT metabolized | Compound NOT metabolized | Compound NOT metabolized | Compound NOT metabolized | Compound NOT metabolized | Compound NOT metabolized | Compound NOT metabolized | – | – | –
O=P(O)(O)O.c1ccc(CN(CC2=NCCN2)c2ccccc2)cc1 [ANTAZOLINE PHOSPHATE] | Compound NOT metabolized | Compound NOT metabolized | Compound NOT metabolized | Compound NOT metabolized | Compound NOT metabolized | Compound NOT metabolized | Compound NOT metabolized | Compound NOT metabolized | Compound NOT metabolized | Compound NOT metabolized | Compound NOT metabolized | Compound NOT metabolized | Compound NOT metabolized | – | Compound NOT metabolized | – | Compound NOT metabolized | – | Compound NOT metabolized
O=C1CC2(CCCC2)CC(=O)N1CCCCN1CCN(c2ncccn2)CC1 [BUSPIRONE] | Compound NOT metabolized | Compound NOT metabolized | Compound NOT metabolized | Compound NOT metabolized | – | – | Compound NOT metabolized | Compound NOT metabolized | Compound NOT metabolized | Compound NOT metabolized | Compound NOT metabolized | Compound NOT metabolized | Compound NOT metabolized | Compound NOT metabolized | Compound NOT metabolized | Compound NOT metabolized | Compound NOT metabolized | Compound NOT metabolized | Compound NOT metabolized
Br.CN1CCC[C@@H]1Cc1c[nH]c2ccc(CCS(=O)(=O)c3ccccc3)cc12 [ELETRIPTAN HYDROBROMIDE] | Compound NOT metabolized | Compound NOT metabolized | Compound NOT metabolized | – | Compound NOT metabolized | Compound NOT metabolized | Compound NOT metabolized | Compound NOT metabolized | Compound NOT metabolized | Compound NOT metabolized | Compound NOT metabolized | Compound NOT metabolized | Compound NOT metabolized | Compound NOT metabolized | Compound NOT metabolized | – | Compound NOT metabolized | – | Compound NOT metabolized
Cc1nc(-c2ccc(OCC(C)C)c(C#N)c2)sc1C(=O)O [FEBUXOSTAT] | Compound NOT metabolized | Compound NOT metabolized | – | Compound NOT metabolized | Compound metabolized | – | Compound NOT metabolized | Compound NOT metabolized | – | Compound NOT metabolized | Compound NOT metabolized | Compound NOT metabolized | Compound NOT metabolized | Compound NOT metabolized | Compound metabolized | Compound NOT metabolized | Compound NOT metabolized | – | Compound NOT metabolized
Cc1cn([C@H]2C[C@H](N=[N+]=[N-])[C@@H](CO)O2)c(=O)[nH]c1=O [ZIDOVUDINE] | Compound NOT metabolized | Compound NOT metabolized | Compound metabolized | Compound NOT metabolized | Compound metabolized | Compound NOT metabolized | Compound NOT metabolized | – | Compound NOT metabolized | Compound metabolized | Compound metabolized | – | Compound NOT metabolized | Compound NOT metabolized | Compound NOT metabolized | Compound NOT metabolized | Compound metabolized | Compound metabolized | –

Further lines, with some results ahead:

Bacterial Biotransformation [1] | Bacterial Biotransformation [2] | Bacterial Biotransformation [3] | Bacterial Biotransformation [4] | Bacterial Biotransformation [5] | Bacterial Biotransformation [6] | Bacterial Biotransformation [7] | Bacterial Biotransformation [8] | Bacterial Biotransformation [9] | Bacterial Biotransformation [10] | Bacterial Biotransformation [11] | Bacterial Biotransformation [12] | Bacterial Biotransformation [13] | Bacterial Biotransformation [14] | Bacterial Biotransformation [15] | Bacterial Biotransformation [16] | Bacterial Biotransformation [18] | Bacterial Biotransformation [19] | Compound | Bacterial Biotransformation [17]
Compound metabolized | Compound NOT metabolized | – | – | Compound metabolized | Compound NOT metabolized | Compound NOT metabolized | – | Compound NOT metabolized | Compound NOT metabolized | Compound NOT metabolized | Compound NOT metabolized | Compound NOT metabolized | Compound metabolized | – | Compound NOT metabolized | Compound NOT metabolized | Compound metabolized | N#Cc1ccc2c(c1)N(CCCN1CCC(O)CC1)c1ccccc1S2 [PERICIAZINE] | –
– | Compound NOT metabolized | Compound NOT metabolized | Compound NOT metabolized | Compound NOT metabolized | – | Compound NOT metabolized | Compound NOT metabolized | – | Compound NOT metabolized | Compound NOT metabolized | Compound NOT metabolized | Compound NOT metabolized | Compound NOT metabolized | Compound NOT metabolized | Compound NOT metabolized | Compound NOT metabolized | – | Nc1c2c(nc3ccccc13)CCCC2 [TACRINE] | Compound NOT metabolized
Compound NOT metabolized | Compound NOT metabolized | Compound NOT metabolized | Compound NOT metabolized | Compound NOT metabolized | – | Compound NOT metabolized | – | Compound NOT metabolized | Compound NOT metabolized | Compound NOT metabolized | Compound NOT metabolized | – | – | Compound NOT metabolized | Compound NOT metabolized | Compound NOT metabolized | Compound NOT metabolized | CN1C(C(=O)Nc2ccccn2)=C(O)c2sccc2S1(=O)=O [TENOXICAM] | Compound NOT metabolized
Compound NOT metabolized | Compound NOT metabolized | Compound NOT metabolized | Compound NOT metabolized | Compound NOT metabolized | Compound NOT metabolized | Compound NOT metabolized | Compound NOT metabolized | Compound NOT metabolized | Compound NOT metabolized | Compound NOT metabolized | Compound NOT metabolized | Compound NOT metabolized | Compound NOT metabolized | Compound NOT metabolized | Compound NOT metabolized | Compound NOT metabolized | Compound NOT metabolized | O=c1n(CCCN2CCN(c3cccc(Cl)c3)CC2)nc2ccccn12 [TRAZODONE] | –
